Test results reported in patent publication US20260028364A1, “CATIONIC CHROMENONES AND THEIR USE IN ONCOLOGY” (FLORATEK PHARMA S.A., priority 2022, published 2026).
pIC50: −log10 of the molar value.

Assays:
Type in all cases: cell-based
K562 = assay: CellTiter-Glo cell viability, K562; conditions: Homo sapiens; K562 cells, 72 h with compound
Experimental: (§1) Antitumor activity against a panel of cancer cell lines Antitumor activity of the compounds was assessed by using the CellTiter-Glow® Luminescent Cell Viability assay (Promega #G7572) according to the manufacturer's instructions. The compounds were tested at 5 or 6 concentrations in 1:2 dilution increments (highest concentration 10 µM) in triplicate well conditions.
(§2) Tumor cells were grown at 37° C. in a humidified atmosphere with 5% CO2 in RPMI 1640 or DMEM medium, supplemented with 10% (v/v) fetal calf serum and 50 μg/ml gentamicin for up to 20 passages, and were passaged once or twice weekly. Cells were harvested using TrypLE or PBS buffer containing 1 mM EDTA, and the percentage of viable cells is determined using a cell counter.
(§3) Cells were harvested from exponential phase cultures, counted and plated in 96 well flat-bottom microtiter plates at a cell density depending on the cell line's growth rate (4,000-20,000 cells/well depending on the cell line's growth rate) in RPMI 1640 or DMEM medium supplemented with 10% (v/v) fetal calf serum and 50 μg/ml gentamicin (140 μl/well). Cultures were incubated at 37° C. and 5% CO2 in a humidified atmosphere. […] Viability of cells was quantified by the CellTiter-Glow® Luminescent Cell Viability assay (Promega #G7572). Luminescence was measured with the microplate luminometer (En Vision Perkin Elmer). […]

MOLT-4 = assay: CellTiter-Glo cell viability, MOLT-4; conditions: Homo sapiens; MOLT-4 cells, 72 h with compound
Experimental: as §1, §2, §3

NALM-6 = assay: CellTiter-Glo cell viability, NALM-6; conditions: Homo sapiens; NALM-6 cells, 72 h with compound
Experimental: as §1, §2, §3

NCI-H1975 = assay: CellTiter-Glo cell viability, NCI-H1975; conditions: Homo sapiens, H-1975 cells, 72 h with compound
Experimental: as §1, §2, §3

SK-Mel-5 [1] = assay: CellTiter-Glo cell viability, SK-Mel-5; conditions: Homo sapiens; SK-Mel-5 cells, 72 h with compound
Experimental: as §1, §2
Cells were harvested from exponential phase cultures, counted and plated in 96 well flat-bottom microtiter plates at a cell density depending on the cell line's growth rate (4,000-20,000 cells/well depending on the cell line's growth rate) in RPMI 1640 or DMEM medium supplemented with 10% (v/v) fetal calf serum and 50 μg/ml gentamicin (140 μl/well). Cultures were incubated at 37° C. and 5% CO2 in a humidified atmosphere. After 24 h, 10 μl of test compounds or control medium are added, and left on the cells for another 72 h. Compounds were serially diluted in DMSO, transferred in cell culture medium, and added to the assay plates. The DMSO concentration was kept constant at <0.2% v/v across the assay plate. Viability of cells was quantified by the CellTiter-Glow® Luminescent Cell Viability assay (Promega #G7572). Luminescence was measured with the microplate luminometer (En Vision Perkin Elmer).
Sigmoidal concentration-response curves were fitted to the data points (test-versus-control, T/C values) obtained for each tumor model using Graph Pad prism 5.02 software. IC50 values are reported as absolute IC50 values, being the concentration of test compound at the intersection of the concentration-response curves with T/C=50%.

CHP-134 = assay: Caspase-Glo 3/7 apoptosis assay, CHP-134; conditions: CHP-134 cells, 3.16 μM, 24 h
Experimental: (§4) Apoptosis activity was evaluated using Caspase-Glo 3/7 Assay kit (Promega-G8091) according to the manufacturer's instructions. Cells were grown as above and harvested from exponential phase cultures, counted and plated in 96 black well flat-bottom microtiter plates at a cell density depending on the cell line's growth rate (3,000-10,000 cells/well depending on the cell line's growth rate). Following an overnight incubation, compounds were added to the cell plates at various concentrations (highest at […]) with the DMSO concentration maintained at 0.1% for a 24 h period treatment. 100 μL of Caspase-Glo 3/7 Reagent was added to each well of 96-well plate containing 100 μL culture medium, and after 30 min at room temperature, luminescence was measured with the microplate luminometer (EnVision Perkin Elmer). The induced relative Caspase 3/7 activity of the tested compounds was determined by the following formula: Relative Caspase 3/7 activity (fold increase)=(RLU compound−RLU blank)/(RLU control−RLU blank).

DMS-114 = assay: Caspase-Glo 3/7 apoptosis assay, DMS-114; conditions: DMS-114 cells, 10 μM, 24 h
Experimental: as §4

SK-Mel-5 [2] = assay: Caspase-Glo 3/7 apoptosis assay, SK-Mel-5; conditions: SK-Mel-5 cells, 1 μM, 24 h
Experimental: as §4

A2058 = assay: Caspase-Glo 3/7 apoptosis assay, A2058; conditions: A2058 cells, 10 μM, 24 h
Experimental: as §4

Oxidative Stress = assay: SelectScreen CellSensor pathway inhibition, Oxidative Stress; conditions: Homo sapiens; ARE-bla HepG2, stimulus tBHQ
Experimental: Inhibition of various cellular pathways known to be involved in malignancy was tested using the SelectScreen Cell-based Pathway Profiling GeneBLAzer™ cell signaling pathway specific CellSensor™ cell lines ((Thermo Fisher). The assay is based on a beta-lactamase reporter activity which is modulated and can be measured quantitatively and selectively with the LiveBLAzer™-FRET B/G Loading Substrate. SelectScreen Cell-Based Pathway Profiling Service uses XLfit from IDBS. The dose response curve is curve fit to model number 205 (sigmoidal dose-response model). Custom logic was built by Thermo Fisher for the data analysis tool to address the different compound characteristics that can be observed with functional assays.
Oxidative Stress—ARE-bla HepG2—Inhibitor Screen, Activated by tBHQ
ARE-bla HepG2 cells are thawed and resuspended in Assay Media (DMEM, 10% dialyzed FBS, 25 mM HEPES pH 7.3, 0.1 mM NEAA, 100 U/mL/100 μg/mL Pen/Strep) to a concentration of 375,000 cells/mL. 32 μL of cell suspension is added to each well of a 384-well Poly-D-Lysine assay plate. Cells in Assay Media are incubated for 16-24 hours in the plate at 37° C./5% CO2 in a humidified incubator. […] The plate is read on a fluorescence plate reader.

pIC50 (K562): 7.85 | pIC50 (MOLT-4): 6.40 | pIC50 (NCI-H1975): 6.85 | pIC50 (SK-Mel-5 [1]): 6.33 | pIC50 (Oxidative Stress): 5.87
SMILES: COc1ccc2c(=O)c(-c3ccc(CCCC[P+](c4ccccc4)(c4ccccc4)c4ccccc4)cc3)coc2c1OC.[Br-] [SND470, (4-(4-(7,8-Dimethoxy-4-oxo-4H-chromen-3-yl)phenyl)butyl)triphenylphosphonium bromide]
pIC50 (NALM-6): 6.60 | Fold activation of Caspase 3/7 (CHP-134): 7.02 Fold | Fold activation of Caspase 3/7 (DMS-114): 3.32 Fold | Fold activation of Caspase 3/7 (SK-Mel-5 [2]): 7.22 Fold | Fold activation of Caspase 3/7 (A2058): 3.87 Fold
